pEC50: −log10 of the molar value. Structures can show the parent of a compound that is named as a salt. Where two headings read alike, the source gives them in different places.
Experiments:
[1] = molecular target: T1, cCaSR (Felis catus, UniProt C7FF08); assay: cell-based; conditions: agonist assay; for pEC50: cCaSR activity, at least three wells; for EC50: > 0.01 M = maximal response not reached
T1 sequence (C7FF08 1-1081): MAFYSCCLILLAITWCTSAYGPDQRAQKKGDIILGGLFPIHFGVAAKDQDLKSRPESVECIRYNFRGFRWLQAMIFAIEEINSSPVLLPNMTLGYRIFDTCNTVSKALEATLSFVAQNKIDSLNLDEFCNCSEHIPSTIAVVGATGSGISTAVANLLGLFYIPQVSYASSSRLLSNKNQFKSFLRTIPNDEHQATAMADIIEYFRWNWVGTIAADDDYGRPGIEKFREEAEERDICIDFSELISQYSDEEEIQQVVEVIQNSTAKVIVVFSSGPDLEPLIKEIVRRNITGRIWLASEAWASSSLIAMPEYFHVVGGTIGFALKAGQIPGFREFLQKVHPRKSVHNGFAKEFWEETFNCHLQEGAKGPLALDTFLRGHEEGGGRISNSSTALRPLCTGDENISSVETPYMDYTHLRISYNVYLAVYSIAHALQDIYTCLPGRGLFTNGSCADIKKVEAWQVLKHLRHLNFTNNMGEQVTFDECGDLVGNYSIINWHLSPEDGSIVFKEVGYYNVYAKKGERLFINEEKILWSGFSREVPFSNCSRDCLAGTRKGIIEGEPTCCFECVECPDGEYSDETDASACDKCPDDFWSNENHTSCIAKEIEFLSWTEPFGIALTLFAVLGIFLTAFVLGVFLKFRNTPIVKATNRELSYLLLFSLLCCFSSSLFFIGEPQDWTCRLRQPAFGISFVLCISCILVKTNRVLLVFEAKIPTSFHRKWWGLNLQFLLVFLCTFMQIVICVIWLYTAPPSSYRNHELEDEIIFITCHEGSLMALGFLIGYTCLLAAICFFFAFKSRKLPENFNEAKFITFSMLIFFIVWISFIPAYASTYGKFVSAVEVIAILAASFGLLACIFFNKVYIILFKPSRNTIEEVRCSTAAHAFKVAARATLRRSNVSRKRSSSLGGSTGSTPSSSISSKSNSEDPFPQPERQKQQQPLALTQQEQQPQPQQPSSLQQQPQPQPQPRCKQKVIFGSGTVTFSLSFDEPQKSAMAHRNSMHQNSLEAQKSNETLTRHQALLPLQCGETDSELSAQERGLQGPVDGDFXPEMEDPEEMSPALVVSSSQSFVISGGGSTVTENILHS

[2] = molecular target: T1, cCaSR; assay: cCaSR PAM luminescence assay, double injection with 0.5 mM CaCl2, HEK293/T-REx/natClytin-cCaSR; conditions: for pEC50: read-out: EC50 PAM, positive allosteric modulator, presence of Ca2+
[3] = molecular target: T1, cCaSR
[4] = Supplementary Table I, PAM assay, dash = no activity
[5] = EC50 (M), stable inducible cCaSR line
[6] = EC50 Ago (M), Supplementary Table I
[7] = Supplementary Table I, agonist assay, dash = no activity
[8] = agonist assay, stable inducible cCaSR line, > 0.01 M = maximal response not reached
[9] = read-out: EC50 Ago, Supplementary Table I, agonist assay, > 0.01 M = maximal response not reached
[10] = read-out: cCaSR activity, agonist assay, stable inducible cCaSR line, at least three wells

| Compound | EC50 PAM (M) [2, 4] | EC50 Ago (M) [3, 7] | further results |
| --- | --- | --- | --- |
| N[C@@H](CCC(=O)NCC(=O)O)C(=O)O [γ-Glu-Gly] | - |  | pEC50 ([1]; stable inducible cCaSR line): < 2.00 |
| NC[C@@H]1O[C@H](O[C@H]2[C@@H](O)[C@H](O[C@@H]3[C@@H](O)[C@H](N)C[C@H](N)[C@H]3O[C@H]3O[C@H](CO)[C@@H](O)[C@H](O)[C@H]3N)O[C@@H]2CO)[C@H](N)[C@@H](O)[C@@H]1O [Paromomycin sulfate salt, reference compound] | - |  | EC50 [1, 5]: 0.00108 M; EC50 [1, 6]: 0.00108 M |
| N[C@@H](CCC(=O)N[C@@H](Cc1ccccc1)C(=O)O)C(=O)O [γ-Glu-Phe] | - |  | EC50 [1, 5]: 0.00232 M; pEC50 ([1]; stable inducible cCaSR line): 2.00 to 3.00 |
| CN[C@@H]1[C@@H](O)[C@@H](O[C@@H]2[C@@H](O)[C@H](O[C@H]3OC(CN)=CC[C@H]3N)[C@@H](N)C[C@H]2N)OC[C@]1(C)O [Sisomicin sulfate salt, reference compound] | - |  | EC50 [1, 5]: 0.000299 M; EC50 [1, 6]: 0.0003 M |
| CNC(C)C1CCC(N)C(OC2C(N)CC(N)C(OC3OCC(C)(O)C(NC)C3O)C2O)O1 (stereo not drawn) [Gentamicin, reference compound] | - |  | EC50 [1, 5]: 0.000989 M; EC50 [1, 6]: 0.00099 M |
| N[C@@H](CCC(=O)N[C@@H](CS)C(=O)O)C(=O)O [γ-Glu-Cys] | - |  | pEC50 ([1]; stable inducible cCaSR line): < 2.00 |
| NC(CCCCCCCCCC(=O)O)C(=O)O (stereo not drawn) [2-aminododecanedioic acid] | - | - |  |
| c1ccc(C2CCN(C3CCCc4ccccc43)C2)cc1 (stereo not drawn) [Enamine Screening - Z1627256025] |  | - | pEC50 ([2]; Supplementary Table I): 3.10 |
| N[C@@H](CS)C(=O)O [L-Cysteine] | - | - |  |
| CC(C)[C@H](N)P(=O)(O)O [(1R)-(+)-(1-Amino-2-methylpropyl)phosphonic acid] |  |  | EC50 Ago (M) [3]: -; EC50 PAM (M) [2]: - |
| CNC(=N)NCCC[C@H](N)C(=O)O [NG-methyl L Arginine] | - | - |  |
| O=C(O)[C@@H]1C[C@@H](O)CN1 [Hydroxyproline] | - | - |  |
| CC(=O)N1C=Cc2ccccc2C1CC(=O)NC(C)c1cccc(Br)c1 (stereo not drawn) [Enamine Screening - Z336933272] |  | - | pEC50 ([2]; Supplementary Table I): 4.92 |
| NC(CCP(=O)(O)O)C(=O)O (stereo not drawn) [2-Amino-4-phosphonobutyric acid] | - |  | pEC50 ([1]; stable inducible cCaSR line): < 2.00 |
| [Gd+3] [Gd^3+, Gadolinium ion Gd^3+] | - |  | pEC50 [3, 8]: 3.53; pEC50 [3, 9]: 3.53; pEC50 [3, 10]: > 3.00 |
| NCCNCCCNCCN [N,N'-Bis(2-aminoethyl)-1,3-propanediamine] |  |  | EC50 Ago (M) [3]: -; EC50 PAM (M) [2]: - |
| COc1ccc(CCC(C)NC2CCOc3ccccc32)cc1O (stereo not drawn) [Enamine Screening - Z1857407854] |  | - | pEC50 ([2]; Supplementary Table I): 5.26 |
| Poly-L-lysine | - |  | pEC50 [3, 10]: < 2.00 |
| O=C(O)c1cc2c(cn1)[nH]c1ccccc12 [9H-pyrido[3,4-b]indole-3-carboxylic acid] | - | - |  |
| N[C@@H](C[Se][Se]C[C@H](N)C(=O)O)C(=O)O.O [L-Selenocystine monohydrate] | - | - |  |
| CSCC[C@H](N)C(=O)O [L-Methionine] |  |  | EC50 Ago (M) [3]: -; EC50 PAM (M) [2]: - |
| COC(=O)[C@@H](N)CCCNC(=N)N[N+](=O)[O-].Cl [Nω-Nitro-L-arginine methyl ester hydrochloride] | - | - |  |
| O=C(O)[C@@H]1CNCCN1 [S-piperazine-2-carboxylic acid] | - | - |  |
| OCC(CNC1CCCOc2cc(Cl)ccc21)Cc1ccccn1 (stereo not drawn) [Enamine Screening - Z1589915397] |  | - | pEC50 ([2]; Supplementary Table I): 3.91 |

More lines, main results first:

| EC50 PAM (M) [2, 4] | EC50 Ago (M) [3, 7] | Compound | further results |
| --- | --- | --- | --- |
| - |  | NC(=O)CC[C@H](NC(=O)CC[C@H](N)C(=O)O)C(=O)O [γ-Glu-Gln] | pEC50 ([1]; stable inducible cCaSR line): < 2.00 |
| - |  | N[C@@H](CCCC(=O)O)C(=O)O [L-2-Aminoadipic acid] | pEC50 ([1]; stable inducible cCaSR line): < 2.00 |
| - |  | N[C@@H](C[C@H](O)C(=O)O)C(=O)O [2S,4S-g-Hydroxy-L-glutamic acid] | pEC50 ([1]; stable inducible cCaSR line): < 2.00 |
| - | - | C[C@@H](O)[C@H](N)C(=O)O [L-Threonine] |  |
| - | - | C[C@](N)(CC(=O)O)C(=O)O [(S)-a-Methylaspartic acid, (S)-α-Methylaspartic acid] |  |
| - |  | N[C@@H](CCC(=O)N[C@@H](Cc1ccc(O)cc1)C(=O)O)C(=O)O [γ-Glu-Tyr] | EC50 [1, 5]: 0.00388 M; EC50 [1, 6]: 0.00388 M; pEC50 ([1]; stable inducible cCaSR line): 2.00 to 3.00 |
| - |  | N[C@@H](CCC(=O)N[C@@H](CSCCO)C(=O)NCC(=O)O)C(=O)O [S-(2-Hydroxyethyl)glutathione] | EC50 [1, 5]: 0.00211 M; EC50 [1, 6]: 0.0021 M; pEC50 ([1]; stable inducible cCaSR line): 2.00 to 3.00 |
| - | - | NC(=O)C[C@H](N)C(=O)O [L-Asparagine] |  |
| - | - | N[C@H](CC(=O)O)C(=O)O [D-Aspartic Acid] |  |
| - | - | COC(=O)[C@@H](N)CCCNC(N)=N[N+](=O)[O-] [NG-Nitro-L-Arginine Methyl Ester] |  |
| - | - | NC(=O)CC[C@H](N)C(=O)O [L-Glutamine] |  |
| - | - | NCCS(=O)(=O)O [Taurine] |  |
| - | - | COc1c(C)cc(C(=O)CC#N)cc1C [3,5-Dimethyl-4-methoxybenzoylacetonitrile] |  |
| - | - | NC[C@H](N)C(=O)O [S-2,3-diaminopropanoic acid] |  |
| - |  | CC(=O)[O-].CC(=O)[O-].CC(=O)[O-].O.[Tb+3] [Tb^3+, Terbium(III) acetate hydrate] | pEC50 [3, 8]: 3.76; pEC50 [3, 9]: 3.76; pEC50 [3, 10]: > 3.00 |
| - | - | C[C@H](N)C(=O)O [L-Alanine] |  |
| - | - | NC(CCCC(N)C(=O)O)C(=O)O (stereo not drawn) [2,6-Diaminopimelic acid] |  |
| - | - | C[C@@H](N[C@H]1CCCC[C@@H]1NC(=O)c1ccc(Cl)cc1)c1cccc2ccccc12 [Calhex 231, reference compound] |  |
| - | - | OC[C@H]1O[C@@](CO)(O[C@H]2O[C@H](CO)[C@@H](O)[C@H](O)[C@H]2O)[C@@H](O)[C@@H]1O [Sucrose] |  |
| - | - | N[C@@H](CCC(=O)NCC(=O)NCC(=O)O)C(=O)O [γ-Glu-Gly-Gly] |  |
| - | - | CC[C@H](C)[C@H](N)C(=O)O [L-Isoleucine] |  |
| - | - | CC1(C)N[C@H](C(=O)O)Cc2c1[nH]c1ccccc21 [S-1,1-dimethyl-2,3,4,9-tetrahydro-1H-pyrido[3,4-b]indole-3-carboxylic acid] |  |
| - | - | NCCCCCN [Cadaverine] |  |
| - | - | CC(C)(Cc1ccc2ccccc2c1)NC[C@@H](O)COc1cccc(Cl)c1C#N [NPS 2143, reference compound] |  |
| - |  | [Sr+2] [Sr^2+] | pEC50 [3, 10]: < 2.00 |
| - | - | COC(=O)[C@@H](N)CCCN=C(N)N [L-Arginine methyl ester] |  |
|  | - | CC(NCC1CCCN(C)C1c1cccs1)c1cc(Cl)c(N)c(Cl)c1 (stereo not drawn) [Enamine Screening - Z1532507755] | pEC50 ([2]; Supplementary Table I): 5.06 |
